Patent publication US8785488B2 (Exelixis Patent Company LLC, priority 2009, dated 2014)
Counter-ions that a name gives are not always drawn.

The compounds below were run against T1, human TGR5 (h-TGR5) (Homo sapiens, UniProt Q8TDU6) (assay: TGR5/CRE-Luciferiase Assay (HEK 293 hTGR5/CRE-Luc cells)). Conditions: HEK 293 hTGR5/CRE-Luc cells, 6 hours incubation, luciferase activity; Table 2; read-out: h-TGR5CRE-Luc EC50 (CRE-Luc).
T1 construct: expressed in transfected cells
T1 sequence (Q8TDU6 1-330): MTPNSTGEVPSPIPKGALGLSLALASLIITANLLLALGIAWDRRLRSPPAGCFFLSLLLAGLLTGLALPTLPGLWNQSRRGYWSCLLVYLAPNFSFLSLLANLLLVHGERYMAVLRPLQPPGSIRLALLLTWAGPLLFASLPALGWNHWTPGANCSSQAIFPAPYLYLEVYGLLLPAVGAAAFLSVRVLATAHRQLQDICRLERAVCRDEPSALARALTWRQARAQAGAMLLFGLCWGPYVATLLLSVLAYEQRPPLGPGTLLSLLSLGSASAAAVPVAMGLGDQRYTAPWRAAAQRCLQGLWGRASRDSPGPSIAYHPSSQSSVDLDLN
Type: cell-based
Summary of the method: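 HEK293 cells stably carrying hTGR5 and a CRE-luciferase reporter were exposed to serially diluted compounds (diluted in DMEM with 5% DMSO) for 6 h. Cells were then lysed in luciferase buffer, luminescence was read, and EC50 values were derived from dose-response curves.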

| SMILES | EC50 |
| --- | --- |
| Fc1ccc(-n2c(Cc3ccc(Cl)c(Cl)c3)nnc2SCc2cccc(Cl)c2F)cc1 [Example 2] | 1000 to 10000 nM |
| CC(C)(c1ccc(Cl)cc1)c1nnc(SCc2ccc(F)cc2Cl)n1-c1ccc(F)cc1 [Example 6] | 1000 to 10000 nM |
| Fc1ccc(-n2c(Cc3ccc(F)c(Cl)c3)nnc2SCc2c(F)cccc2Cl)cc1 [Example 15] | 1000 to 10000 nM |
| Fc1ccc(CSc2nnc(Cc3ccc(Cl)c(Cl)c3)n2-c2ccc(F)cc2)cc1 [Example 17] | 1000 to 10000 nM |
| COc1ccc(Cc2nnc(SCc3ccc(F)cc3Cl)n2-c2ccc(F)cc2)cc1 [Example 28, hydrochloride] | 1000 to 10000 nM |
| COc1ccc(Cc2nnc(SCc3cccc(C(F)(F)F)c3F)n2-c2ccc(F)cc2)cc1OC [Example 30] | < 100 nM |
| Fc1ccc(-n2c(Cc3ccc(Cl)c(Cl)c3)nnc2SCc2ccc(F)cc2C(F)(F)F)cc1 [Example 33] | 1000 to 10000 nM |
| Fc1ccc(-n2c(Cc3ccc(Cl)c(F)c3)nnc2SCc2c(F)cccc2Cl)cc1 [Example 38] | 100 to 1000 nM |
| CS(=O)(=O)c1ccc(Cc2nnc(SCc3ccc(F)cc3Cl)n2-c2ccc(F)cc2)cc1 [Example 44] | 1000 to 10000 nM |
| CC(C)(c1ccc2nccnc2c1)c1nnc(SCc2ccc(Cl)c(-c3nnn[nH]3)c2)n1-c1ccc(F)cc1 [Example 46] | 1000 to 10000 nM |
| CC(C)(c1ccc2cccnc2c1)c1nnc(SCc2c(F)cc(C(=O)O)cc2F)n1-c1ccc(F)cc1 [Example 50] | 1000 to 10000 nM |

Same assay, conditions: h-TGR5 CRE-Luc EC50, Table 1; read-out: CRE-Luc (EC50)

| SMILES | EC50 |
| --- | --- |
| COc1ccc(C(C)(C)c2cnc(C(=O)NC3CCCCC3)n2-c2ccc(F)cc2)cc1OC [5-{1-[3,4-bis(methyloxy)phenyl]-1-methylethyl}-N-cyclohexyl-1-(4-fluorophenyl)-1H-imidazole-2-carboxamide] | 1000 to 10000 nM |
| CC(C)(c1ccc(NS(C)(=O)=O)cc1)c1cnc(SCc2c(F)cccc2Cl)n1-c1ccc(F)cc1 [N-(4-{1-[2-{[(2-chloro-6-fluorophenyl)methyl]thio}-1-(4-fluorophenyl)-1H-imidazol-5-yl]-1-methylethyl}phenyl)methanesulfonamide] | 100 to 1000 nM |
| COc1cc(C(C)(C)c2cnc(SCc3ccc(S(=O)(=O)NC(=O)NCCC(=O)O)cc3Cl)n2-c2ccc(F)cc2)ccc1Cl [N-[({[3-chloro-4-({[5-{1-[4-chloro-3-(methyloxy)phenyl]-1-methylethyl}-1-(4-fluorophenyl)-1H-imidazol-2-yl]thio}methyl)phenyl]sulfonyl}amino)carbonyl]-beta-alanine] | 100 to 1000 nM |
| COc1cc(C(C)(C)c2cnc(SCC3CCN(CC(=O)O)CC3)n2-c2ccc(F)cc2)ccc1Cl [[4-({[5-{1-[4-chloro-3-(methyloxy)phenyl]-1-methylethyl}-1-(4-fluorophenyl)-1H-imidazol-2-yl]thio}methyl)piperidin-1-yl]acetic acid] | 1000 to 10000 nM |
| CC(C)(c1ccc(OCC(=O)O)cc1)c1cnc(SCc2c(F)cccc2Cl)n1-c1ccc(F)cc1 [[(4-{1-[2-{[(2-chloro-6-fluorophenyl)methyl]thio}-1-(4-fluorophenyl)-1H-imidazol-5-yl]-1-methylethyl}phenyl)oxy]acetic acid] | 1000 to 10000 nM |

Further lines, results first:

| EC50 | SMILES |
| --- | --- |
| 1000 to 10000 nM | COc1ccc(C(C)(C)c2cnc(C(=O)Nc3ccc(Cl)c(Cl)c3)n2-c2ccc(F)cc2)cc1OC [5-{1-[3,4-bis(methyloxy)phenyl]-1-methylethyl}-N-(3,4-dichlorophenyl)-1-(4-fluorophenyl)-1H-imidazole-2-carboxamide] |
| 1000 to 10000 nM | COc1ccc(C(C)(C)c2cnc(C(=O)Nc3ccc(F)c(Cl)c3)n2-c2ccc(F)cc2)cc1OC [5-{1-[3,4-bis(methyloxy)phenyl]-1-methylethyl}-N-(3-chloro-4-fluorophenyl)-1-(4-fluorophenyl)-1H-imidazole-2-carboxamide] |
| 100 to 1000 nM | COc1ccc(C(C)(C)c2cnc(C(=O)NCc3ccc(Cl)c(F)c3)n2-c2ccc(F)cc2)cc1OC [5-{1-[3,4-bis(methyloxy)phenyl]-1-methylethyl}-N-[(4-chloro-3-fluorophenyl)methyl]-1-(4-fluorophenyl)-1H-imidazole-2-carboxamide] |
| 100 to 1000 nM | CC(C)(c1ccc(Cl)c(Cl)c1)c1cnc(SCc2ccc(-c3nnn[nH]3)c(Cl)c2)n1-c1ccc(F)cc1 [5-{2-chloro-4-[({5-[1-(3,4-dichlorophenyl)-1-methylethyl]-1-(4-fluorophenyl)-1H-imidazol-2-yl}thio)methyl]phenyl}-1H-tetrazole] |
| 100 to 1000 nM | CC(C)(c1ccc(Cl)c(Cl)c1)c1cnc(SCc2ccc(Cl)c(-c3nnn[nH]3)c2)n1-c1cccc(F)c1 [5-{2-chloro-5-[({5-[1-(3,4-dichlorophenyl)-1-methylethyl]-1-(3-fluorophenyl)-1H-imidazol-2-yl}thio)methyl]phenyl}-1H-tetrazole] |
| 1000 to 10000 nM | CC(C)(c1ccc(Cl)c(Cl)c1)c1cnc(COc2ccc(-c3nn[nH]n3)cc2Cl)n1-c1ccc(F)cc1 [5-{3-chloro-4-[({5-[1-(3,4-dichlorophenyl)-1-methylethyl]-1-(4-fluorophenyl)-1H-imidazol-2-yl}methyl)oxy]phenyl}-2H-tetrazole] |
| 100 to 1000 nM | CC(C)(c1ccc(Cl)c(Cl)c1)c1cnc(SCc2ccc(-c3nnn[nH]3)c(F)c2)n1-c1ccc(F)cc1 [5-{4-[({5-[1-(3,4-dichlorophenyl)-1-methylethyl]-1-(4-fluorophenyl)-1H-imidazol-2-yl}thio)methyl]-2-fluorophenyl}-1H-tetrazole] |
| 100 to 1000 nM | CC(C)(c1ccc(Cl)c(Cl)c1)c1cnc(SCc2ccc(F)c(-c3nnn[nH]3)c2)n1-c1ccc(F)cc1 [5-{5-[({5-[1-(3,4-dichlorophenyl)-1-methylethyl]-1-(4-fluorophenyl)-1H-imidazol-2-yl}thio)methyl]-2-fluorophenyl}-1H-tetrazole] |
| 100 to 1000 nM | CC(C)(c1ccc(Cl)c(Cl)c1)c1cnc(COc2ccc(C#N)cn2)n1-c1ccc(F)cc1 [6-[({5-[1-(3,4-dichlorophenyl)-1-methylethyl]-1-(4-fluorophenyl)-1H-imidazol-2-yl}methyl)oxy]pyridine-3-carbonitrile] |
| 100 to 1000 nM | CC(C)(c1ccc(Cl)c(Cl)c1)c1cnc(COc2ccc(C(N)=O)cn2)n1-c1ccc(F)cc1 [6-[({5-[1-(3,4-dichlorophenyl)-1-methylethyl]-1-(4-fluorophenyl)-1H-imidazol-2-yl}methyl)oxy]pyridine-3-carboxamide] |
| 100 to 1000 nM | CC(C)(c1ccc(Cl)c(Cl)c1)c1cnc(COc2ccc(C(=O)O)cn2)n1-c1ccc(F)cc1 [6-[({5-[1-(3,4-dichlorophenyl)-1-methylethyl]-1-(4-fluorophenyl)-1H-imidazol-2-yl}methyl)oxy]pyridine-3-carboxylic acid] |
| 100 to 1000 nM | CC(C)(c1ccc(Cl)c(Cl)c1)c1cnc(COc2ccc3ncccc3c2)n1-c1ccc(F)cc1 [6-[({5-[1-(3,4-dichlorophenyl)-1-methylethyl]-1-(4-fluorophenyl)-1H-imidazol-2-yl}methyl)oxy]quinoline] |
| 100 to 1000 nM | CC(C)(c1ccc(Cl)c(Cl)c1)c1cnc(SCc2ccc(F)cc2OCC(=O)O)n1-c1ccc(F)cc1 [({2-[({5-[1-(3,4-dichlorophenyl)-1-methylethyl]-1-(4-fluorophenyl)-1H-imidazol-2-yl}thio)methyl]-5-fluorophenyl}oxy)acetic acid] |
| 1000 to 10000 nM | CC(C)(c1ccc(Cl)c(Cl)c1)c1cnc(S(=O)(=O)Nc2ccc(F)cc2Cl)n1-c1ccc(F)cc1 [N-(2-chloro-4-fluorophenyl)-5-[1-(3,4-dichlorophenyl)-1-methylethyl]-1-(4-fluorophenyl)-1H-imidazole-2-sulfonamide] |
| < 100 nM | COc1ccc(C(C)(C)c2cnc(CNc3ccc(F)cc3Cl)n2-c2ccc(F)cc2)cc1OC [N-{[5-{1-[3,4-bis(methyloxy)phenyl]-1-methylethyl}-1-(4-fluorophenyl)-1H-imidazol-2-yl]methyl}-2-chloro-4-fluoroaniline] |
| < 100 nM | COc1ccc(C(C)(C)c2cnc(CNc3ccc(Cl)c(Cl)c3)n2-c2ccc(F)cc2)cc1OC [N-{[5-{1-[3,4-bis(methyloxy)phenyl]-1-methylethyl}-1-(4-fluorophenyl)-1H-imidazol-2-yl]methyl}-3,4-dichloroaniline] |
| 100 to 1000 nM | COc1ccc(C(C)(C)c2cnc(CNc3ccc(F)c(Cl)c3)n2-c2ccc(F)cc2)cc1OC [N-{[5-{1-[3,4-bis(methyloxy)phenyl]-1-methylethyl}-1-(4-fluorophenyl)-1H-imidazol-2-yl]methyl}-3-chloro-4-fluoroaniline] |
| 1000 to 10000 nM | CC(C)(c1ccc(OCC(=O)O)c(Cl)c1)c1cnc(SCc2ccc(F)cc2Cl)n1-c1ccc(F)cc1 [[(2-chloro-4-{1-[2-{[(2-chloro-4-fluorophenyl)methyl]thio}-1-(4-fluorophenyl)-1H-imidazol-5-yl]-1-methylethyl}phenyl)oxy]acetic acid] |
| 100 to 1000 nM | CCOC(=O)c1cc(F)c(CSc2nc(C)c(C(C)(C)c3ccc(Cl)c(OC)c3)n2-c2ccc(F)cc2)c(Cl)c1 [ethyl 3-chloro-4-({[5-{1-[4-chloro-3-(methyloxy)phenyl]-1-methylethyl}-1-(4-fluorophenyl)-4-methyl-1H-imidazol-2-yl]thio}methyl)-5-fluorobenzoate] |
| 100 to 1000 nM | COC(=O)c1cc(F)c(OCc2ncc(C(C)(C)c3ccc(Cl)c(Cl)c3)n2-c2ccc(F)cc2)c(Cl)c1 [methyl 3-chloro-4-[({5-[1-(3,4-dichlorophenyl)-1-methylethyl]-1-(4-fluorophenyl)-1H-imidazol-2-yl}methyl)oxy]-5-fluorobenzoate] |
